Settings: 101.33 kPa, Liquid; for viscosity: Falling or rolling sphere viscometry; for mass density: Vibrating tube method

CC(=O)OCC[N+](C)(C)C.O=S(=O)([N-]S(=O)(=O)C(F)(F)F)C(F)(F)F
Settings | mass density [kg/m3] | viscosity [mPa·s]
293.15 K | – | 309
293.18 K | 1486.9 | –
303.15 K | – | 162
303.19 K | 1477.3 | –
313.15 K | – | 90.7
313.21 K | 1468 | –
323.15 K | – | 56.8
323.16 K | 1458.8 | –
333.15 K | – | 38.5
333.19 K | 1449.7 | –
343.15 K | – | 27.5
343.21 K | 1440.5 | –

CCCC[N+](C)(C)C.O=S(=O)([N-]S(=O)(=O)C(F)(F)F)C(F)(F)F [butyltrimethylammonium bis(trifluoromethylsulfonyl)imide]
Settings | mass density [kg/m3] | viscosity [mPa·s]
293.15 K | – | 138
293.26 K | 1396.5 | –
303.15 K | – | 82.3
303.22 K | 1387.6 | –
313.03 K | 1379 | –
313.15 K | – | 52.2
323.13 K | 1370 | –
323.15 K | – | 35.5
333.15 K | – | 27.9
333.17 K | 1361.3 | –
343.15 K | – | 21.5
343.18 K | 1352.8 | –

CCCCCC[n+]1cccc(C)c1.O=S(=O)([N-]S(=O)(=O)C(F)(F)F)C(F)(F)F
Settings | mass density [kg/m3] | viscosity [mPa·s]
293.14 K | 1356.1 | –
293.15 K | – | 105
303.15 K | – | 64.2
303.17 K | 1347.1 | –
313.14 K | 1338.4 | –
313.15 K | – | 41.2
323.13 K | 1329.7 | –
323.15 K | – | 28.3
333.15 K | – | 22.5
333.22 K | 1321 | –
343 K | 1312.9 | –
343.15 K | – | 17.5

CCC[N+](C)(C)CCO.O=S(=O)([N-]S(=O)(=O)C(F)(F)F)C(F)(F)F
Settings | mass density [kg/m3] | viscosity [mPa·s]
293.15 K | – | 160
293.16 K | 1453.6 | –
303.15 K | – | 92.7
303.16 K | 1444.5 | –
313.11 K | 1435.7 | –
313.15 K | – | 58.1
323.14 K | 1426.8 | –
323.15 K | – | 38.7
333.15 K | – | 30.3
333.16 K | 1418.1 | –
343.14 K | 1408.7 | –
343.15 K | – | 22.9

O=S(=O)([N-]S(=O)(=O)C(F)(F)F)C(F)(F)F.OCCC[n+]1ccccc1
Settings | mass density [kg/m3] | viscosity [mPa·s]
293.15 K | 1551 | 160
303.15 K | – | 92.2
303.24 K | 1541.7 | –
313.14 K | 1532.1 | –
313.15 K | – | 57.7
323.15 K | 1522.9 | 38.2
333.15 K | – | 29.4
333.16 K | 1513.8 | –
343.13 K | 1504.7 | –
343.15 K | – | 22.8

CCCC[N+]1(C)CCCC1.O=S(=O)([N-]S(=O)(=O)C(F)(F)F)C(F)(F)F
Settings | mass density [kg/m3] | viscosity [mPa·s]
293.09 K | 1398 | –
293.15 K | – | 101
302.89 K | 1389.2 | –
303.15 K | – | 63.8
313.15 K | – | 41.8
313.59 K | 1379.8 | –
323.15 K | – | 28.9
323.38 K | 1371.3 | –
332.57 K | 1363.1 | –
333.15 K | – | 23.5
342.84 K | 1354.6 | –
343.15 K | – | 18.6
